Laboratory results: patent US20200215099A1, “NON-ANTICOAGULANT SULFATED OR SULFONATED POLYSACCHARIDES” (Baxalta Incorporated, priority 2012, published 2020)

Legend:
[1] = system: normal human plasma; assay: Activated partial thromboplastin time assay (aPTT); format: biochemical; conditions: 50% increase clotting time / CAT EC50
Protocol: The aPTT assay was performed to study anticoagulant activities of NASP. In brief, 50 μL of thawed normal human plasma pool (George King Biomedical, Overland Park, Kans.) was mixed with 5 μL of NASP sample (0-60 μg/mL final plasma concentration). NASPs were diluted in imidazole buffer (3.4 g/L imidazole; 5.85 g/L NaCl, pH 7.4) containing 1% albumin (Baxter, Austria). After addition of 50 μL aPTT reagent (STA APTT, Roche) the samples were incubated for 4 min at 37° C. Clotting was initiated by 50 μL of 25 mM CaCl2 solution (Baxter, Austria) and recorded for up to 5 min. All pipetting steps and clotting time measurements were carried out with an ACL Pro Elite (Instrumentation Laboratory, Bedford, Mass.) instrument. Samples were run in duplicate.
For data analysis, clotting time is plotted against the NASP concentration. Concentrations where the clotting time is 50% increased over the normal plasma control are determined using a linear curve fit.

[2] = system: contact pathway; assay: CAT in normal plasma with and without CTI; format: biochemical; conditions: normal plasma, 1 pM hTF, 4 μM PL, ±41 μg/mL CTI
[3] = Pharmacokinetics after intravenous administration; format: in vivo, CD rats
Protocol: The preparations were either unfractionated (average MW of 63 kD) or fractionated by a filter method (lots A and B with an average MW of 12 and 14 kD, respectively). The substances were prepared in a physiological saline solution and injected at 5 mL/kg. Each group consisted of three animals. Blood sample were collected in the presence of citrate (ratio 1:9) before dosing and 5, 30 min, 1, 3, 6, and 10 h after the dosing. Platelet-poor plasma was prepared by two centrifugation steps at 3000 rpm. The plasma samples were analyzed for by a liquid-chromatography-mass spectroscopy, a substance-specific method for S-6-CI.

[4] = system: FVIII-inhibited human whole blood; assay: Rotation thromboelastometry (ROTEM); conditions: for Activity: normal blood 100, FVIII-inh. blood 0
Protocol: NASPs (0.4-11 μg/mL) were studied in fresh citrated human whole blood by rotation thromboelastometry (ROTEM), an assay that allows continuous visco-elastic assessment of whole blood clot formation and firmness. Blood was incubated with anti-human FVIII plasma raised in goat (Baxter Bioscience, Austria) at 50 BU/mL to simulate hemophilic conditions. Clotting was triggered with 0.044 pM tissue factor (TF) (PRP reagent, Thrombinoscope BV) in the presence of 40 μg/mL CTI (Haematologic Technologies Inc., Essex Junction, Vt., USA). Then 300 μL of the pre-warmed (37° C.) FVIII-inhibited blood was recalcified with 20 μL of a 0.2 M CaCl2 solution. Clot formation was monitored using a ROTEM instrument (Pentapharm Munich, Germany) at 37° C. The final assay concentration of rTF was 44 fM. The ROTEM recording was started immediately and measured for at least 120 min. Each blood sample was analyzed in two independent measurements.
The thromboelastographic parameters of clotting time (CT), clot formation time (CFT) and maximum clot firmness (MCF) were recorded in accordance with the manufacturer's instructions. The first derivative of the thromboelastogram data is plotted to obtain a graph of velocity (mm/s) against time (s). From this graph, the maximum velocity (maxV) and the time at which the maximum velocity is reached (maxV-t) are also determined.

- concentration activating the contact pathway [2]: > 33000 ng/mL
- in vivo recovery (plasma concentration) ([3]; 5 min after i.v. dosing of 5 mg/kg): 28 to 44 µg/mL
- half-life ([3]; i.v. 5 mg/kg, estimated from early time points): 30 to 45 min
Substance: sulfated 6-carboxy-icodextrin
- Ratio aPTT/CAT [1]: very good
- CFT ([4]; +0.41 μg/ml): 388 s
- CT ([4]; +0.41 μg/ml): 1542 s
- MCF ([4]; +0.41 μg/ml): 62 mm
- Activity ([4]; +0.41 μg/ml): 108%
- CFT ([4]; +1.23 μg/ml): 172 s
- CT ([4]; +1.23 μg/ml): 1078 s
- MCF ([4]; +1.23 μg/ml): 63.5 mm
- Activity ([4]; +1.23 μg/ml): 129%
- CFT ([4]; +3.7 μg/ml): 223 s
- CT ([4]; +3.7 μg/ml): 1152 s
- MCF ([4]; +3.7 μg/ml): 63 mm
- Activity ([4]; +3.7 μg/ml): 125%
- CFT ([4]; +11.1 μg/ml): 934 s
- CT ([4]; +11.1 μg/ml): 2526 s
- Activity ([4]; +11.1 μg/ml): 63%
- restoration of coagulation (in words) ([4]; ROTEM, 0.044 pM TF): restores coagulation in FVIII-inhibited whole blood
